Laboratory results: PMC10483525, “Synthesis, Structural Investigations, DNA/BSA Interactions, Molecular Docking Studies, and Anticancer Activity of a New 1,4-Disubstituted 1,2,3-Triazole Derivative” (ACS Omega, 2023)

Tests used:
[1] = biological target: T1, BSA (bovine serum albumin) (Bos taurus, UniProt P02769); test: BSA fluorescence quenching; format: binding; conditions: for Kq (bimolecular quenching constant): Ksv = kqτ0, τ0 10 ns; for ΔG: van't Hoff equation from Kbin, BSA binding
T1 construct: purchased Merck/Sigma
T1 sequence (P02769 25-607): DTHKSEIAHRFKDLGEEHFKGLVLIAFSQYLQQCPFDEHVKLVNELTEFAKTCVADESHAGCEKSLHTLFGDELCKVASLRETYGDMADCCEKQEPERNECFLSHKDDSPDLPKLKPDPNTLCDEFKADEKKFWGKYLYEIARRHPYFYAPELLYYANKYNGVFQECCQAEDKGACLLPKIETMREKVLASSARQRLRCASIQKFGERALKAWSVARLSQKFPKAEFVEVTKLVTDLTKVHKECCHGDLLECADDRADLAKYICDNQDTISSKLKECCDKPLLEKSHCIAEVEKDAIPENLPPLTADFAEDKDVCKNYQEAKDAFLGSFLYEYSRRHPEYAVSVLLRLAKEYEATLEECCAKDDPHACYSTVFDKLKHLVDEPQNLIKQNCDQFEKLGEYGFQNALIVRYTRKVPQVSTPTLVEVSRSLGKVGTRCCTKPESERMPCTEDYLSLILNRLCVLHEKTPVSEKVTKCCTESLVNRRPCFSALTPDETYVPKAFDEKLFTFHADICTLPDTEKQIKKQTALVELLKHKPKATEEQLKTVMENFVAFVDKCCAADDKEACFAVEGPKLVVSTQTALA
Protocol: BSA fluorescence spectral studies of the compound and related calculations were the same as those performed for the [CT-DNA + EB] quenching method described in Section 4.5. Detailed experimental procedures and the calculations of the binding data are given in the SI. […]
The quenching efficiency of the compound was analysed using the Stern-Volmer equation.
Io/I = 1 + K sv[Q] = 1 + k qτ0[Q] […]
where I o and I are the emission intensities of CT-DNA+EB complex in the absence and each […]
addition of compound, respectively and [Q] is the concentration of quencher. The Stern-Volmer […]
(quenching) constant, K sv was determined from the slope of the linear plot of I o/I versus [Q].
To have an insight into the kinetics of the competitive binding process, the bimolecular […]
quenching rate constant, k q values were also computed using the Stern-Volmer equation. […]
where n is the number of binding sites per nucleotide. 8
Fluorescence Spectral Studies
Quenching of fluorescence emission of BSA by compound was performed in order to determine […]
its binding constant. Stock concentration of BSA (5 μM) was prepared in 10 mM Tris- HCl […]
buffer at pH = 7.4. The emission spectra of 5 μM BSA solutions in the absence and presence of […]
compound of concentration ranging from 0 to 8 μM were acquired at room temperature. The […]
emission changes were recorded in the λ em range of 300 to 450 nm, with the excitation wavelength set at 280 nm. Each spectrum was recorded after an incubation time of 10 minutes.
The quenching efficiency of the compound was calculated using the Stern-Volmer equation as discussed above. The Stern-Volmer (quenching) constant, K sv was determined from the slope of the linear plot of I o/I versus [Q]. To have an insight into the kinetics of the competitive binding process, the bimolecular quenching rate constant, k q values were also computed using the same Stern Volmer equation, where τ 0 is the average fluorescence lifetime of the BSA alone is 10 nanoseconds. 9 Scatchard plots also gave the binding constant K bin as determined from the fluorescence titration using Scatchard equation. 10 The standard Gibbs free (ΔG) of compound

[2] = biological target: T1, BSA (bovine serum albumin); test: BSA UV–vis absorption; format: binding; conditions: BSA 10 μM + compound 10 μM
Protocol: The BSA–compound interactions are studied by comparing the UV–vis spectra (200–400 nm) of BSA (10 μM) alone and a mixture of [BSA (10 μM) + compound 3 (10 μM)] at room temperature in 10 mM Tris-HCl buffer with a pH of 7.4.[85]

Caco-2 = test: MTT assay; format: cell-based, human; conditions: for IC50: Homo sapiens
Protocol: Human cancer cell lines (MDA-MB-231, LNCaP, Caco-2) and a human healthy cell line (HEK-293) were obtained from the European Collection of Cell Cultures. The cells were incubated in a humidified incubator (37 °C, 5% CO2) and cultured under standard conditions in Dulbecco’s modified Eagle medium (DMEM), 10% heat-inactivated fetal bovine serum, 100 U mL^–1 penicillin, 100 U mL^–1 streptomycin, and 4 mM L-glutamine. […] A cell culture medium was used to make further dilutions, while keeping the equivalent of DMF below 0.5% of the total volume.[94] […]
7. Cell Viability Inhibition Assay
MDA-MB-231, LNCaP, Caco-2 and HEK-293 cells (5x10^3 per well) seeded in 96-well plates to assess cell viability by the 3-[4,5-dimethylthiazol-2-yl]-2,5-diphenyltetrazolium bromide (MTT) assay for 24 h at 37°C. Then cells were treated with compound 3 at different concentrations (3-100 µM) at 100μl/well. […]
and etoposid was used as positive controls under identical conditions. After 24, 48 and 72 h incubation, 5 mg/ml MTT solution (20 μl/well) was added and cultured for another 4 h. Then, the supernatant was discarded and dimethyl sulfoxide was added (100 μl/well). The absorbance (A) was measured spectrophotometrically at 540 nm by a Microplate Reader (SpectraMax i3x).
A graph was plotted between the concentrations of the extract versus the percent viability. The […]
calculated from graph. All assays were performed in three replicates per concentration level. 11 […]

Caco-2 cells [3] = test: Annexin V/PI double-staining apoptosis assay (flow cytometry); format: cell-based, human; conditions: 48 h
Protocol: calculated from graph. All assays were performed in three replicates per concentration level. 11
8. Annexin-V/PI Double-Staining Assay
Caco-2 (5x10^5 per well) were seeded in 6-well culture plates in medium and incubated for 24 h at 37°C. Then cells were either untreated or treated with the compound 3 (7.5, 15, 30 μM) for additional 48 h. The cells were harvested and resuspended in 400 μl of 1× binding buffer containing Annexin V-FITC (5 μl) and PI (5 μl), and cells were incubated for 15 min at RT (25°C) in the dark. The results were evaluated immediately through flow cytometry (BD Biosciences, San Jose, CA, USA) within 1 h using Annexin V-FITC staining kit (BD […]

Caco-2 cells [4] = test: MMP determination (TMRE, flow cytometry); format: cell-based, human; conditions: Caco-2, 48 h, 7.5, 15, 30 μM
Protocol: Briefly, Caco-2 (5x10^5 per well) were seeded in 6-well plates for 24 h and either untreated or treated with a various concentrations of compound 3 (7.5, 15, 30 μM) for addional 48 h.
Following treatment, cells were harvested and were incubated with 50 nM BD PharmingenTM MitoStatus TMRE for 30 min at 37°C, 5% CO2, followed by resuspending twice with pre-warmed PBS (2000 rpm×3 min). Quantitative changes in mitochondrial membrane potential (MMP) at the early stage of cell apoptosis were measured using BD PharmingenTM MitoStatus TMRE (BD Biosciences, San Jose, CA, USA) and detected by flow cytometry (BD

O=Cc1ccc(OCc2cn(-c3ccc(Cl)c(Cl)c3)nn2)cc1O [Compound 3, 4-((1-(3,4-Dichlorophenyl)-1H-1,2,3-triazol-4-yl)methoxy)-2-hydroxybenzaldehyde]
quenching of BSA fluorescence intensity at ∼345 nm ([1]; BSA 5 μM, compound 0 to 8 μM): 69.12%
red shift of BSA emission ([1]; BSA 5 μM, compound 0 to 8 μM): 5 nm
Ksv (Stern–Volmer quenching constant) ([1]; BSA 5 μM, compound 0–8 μM, λex 280 nm): 1.99 × 10^5 M^–1
Kq (bimolecular quenching constant) ([1]; BSA): 1.99 × 10^13 M^–1·s^–1
Kq (bimolecular quenching constant) ([1]; BSA, listed as compound 3): ~10^13 M^–1·s^–1
n (number of binding sites) ([1]; Scatchard equation, BSA): 0.80
Kd ([1]; Scatchard equation, BSA 5 μM, read-out: Kbin (binding constant) (converted)): 45.9 µM
ΔG [1]: –24.75 kJ·mol^–1
ΔG ([1]; listed as compound 3): −24.75 kJ·mol^–1
Δλ (blue shift of BSA absorption) [2]: ~1 nm
SI HEK-293/Caco-2 (Caco-2; 48 h, SI = IC50 on normal cells/IC50 on cancer cells): 1.46
SI, times higher than cisplatin (Caco-2; Caco-2 cells): 10 times
IC50 (Caco-2; Caco-2, 24 h): 31.7 ± 0.34 µM
IC50 (Caco-2; Caco-2, 48 h): 16.6 ± 0.27 µM
IC50 (Caco-2; Caco-2, 72 h): 11.77 ± 0.01 µM
percentage of apoptosis (early + late) (Caco-2 cells [3]; Caco-2, 7.5 μM): 46.09%
percentage of apoptosis (early + late) (Caco-2 cells [3]; Caco-2, 15 μM): 57.77%
percentage of apoptosis (early + late) (Caco-2 cells [3]; Caco-2, 30 μM): 70.25%
loss of mitochondrial membrane potential (MMP) (Caco-2 cells [4]): significant increase in MMP loss
